Assay results as given in patent publication US8492377B2, “MTKI quinazoline derivatives” (Janssen Pharmaceutica NV, priority 2006, dated 2013).
Counter-ions that a name gives are not always drawn.

Experiments:
human Fyn = human Fyn (Homo sapiens, UniProt P06241); assay: C2: Fyn kinase assay; type: biochemical; details: 5 ng human Fyn, 1.0 μM unlabeled ATP, poly(Glu,Tyr) 4:1, 25° C., 10 minutes; for IC50: read-out: C2: Fyn kinase pIC50 (converted)
Procedure: In this assay the Fyn kinase reaction is performed at 25° C. for 10 minutes in a 96-well microtiterplate. The 25 μl reaction volume contains 8 mM MOPS pH 7.0, 20 mM Mg-acetate, 0.2 mM Na2EDTA, 0.5 mM MnCl2, 1.0 μM unlabeled ATP, 0.2 μCi AT^33P, 20 ng poly(Glu,Tyr) 4:1 and 5 ng human Fyn.
(§1) The reaction is stopped by adding 5 μl of a 3% phosphoric acid solution. 5 μl of the reaction mixture is then spotted onto a Filtermat A filter (Wallac) and washed 3 times for 5 min. in 75 mM phosphoric acid and 1 time for 5 min. in methanol prior to drying and scintillation counting.

human Src = human Src (Homo sapiens, UniProt P12931); assay: C1: c-Src filter assay; type: biochemical; details: 5 ng human Src, 1.0 μM unlabeled ATP, poly(Glu,Tyr) 4:1, 25° C., 10 minutes; read-out: C1: c-SRC filter pIC50 (converted)
Procedure: The in vitro inhibition of c-Src kinase was assessed using the glass-fiber filter technology as described by Davies, S. P. et al., Biochem J. (2000), 351; p. 95-105.
In the glass-fiber filter technology the activity of the kinase is measured using an appropriate substrate that is incubated with the aforementioned kinase protein in the presence of (^33P) radiolabeled ATP. (^33P) Phosporylation of the substrate is subsequently measured as radioactivity bound on a glassfiber-filter.
In an alternative filter based assay the final kinase activity was assessed using a phosphostorage screen instead of scintilation counting.
In this assay the Src kinase reaction is performed at 25° C. for 10 minutes in a 96-well microtiterplate. The 25 μl reaction volume contains 8 mM MOPS pH 7.0, 20 mM Mg-acetate, 0.2 mM Na2EDTA, 0.5 mM MnCl2, 1.0 μM unlabeled ATP, 0.2 μCi AT^33P, 20 ng poly(Glu,Tyr) 4:1 and 5 ng human Src.
as §1, with “quantification on the Typhoon (Amersham) using a phosphostorage screen.” for “scintillation counting.”

Sequence of human Fyn (P06241 whole entry): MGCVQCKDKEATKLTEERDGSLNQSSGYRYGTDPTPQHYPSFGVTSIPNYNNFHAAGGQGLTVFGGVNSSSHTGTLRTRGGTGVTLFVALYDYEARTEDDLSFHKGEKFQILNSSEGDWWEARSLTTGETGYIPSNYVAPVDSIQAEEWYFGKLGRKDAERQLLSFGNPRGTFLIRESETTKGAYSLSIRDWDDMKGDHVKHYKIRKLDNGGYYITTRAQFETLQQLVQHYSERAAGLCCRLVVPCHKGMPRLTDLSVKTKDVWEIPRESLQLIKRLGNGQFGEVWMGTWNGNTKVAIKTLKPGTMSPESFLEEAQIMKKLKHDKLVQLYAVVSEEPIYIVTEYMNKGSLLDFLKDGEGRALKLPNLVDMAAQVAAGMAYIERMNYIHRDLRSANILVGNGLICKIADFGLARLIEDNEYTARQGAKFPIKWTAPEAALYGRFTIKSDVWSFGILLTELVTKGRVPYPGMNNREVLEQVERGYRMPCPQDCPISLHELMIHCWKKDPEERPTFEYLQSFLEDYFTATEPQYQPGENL
Sequence of human Src (P12931 whole entry): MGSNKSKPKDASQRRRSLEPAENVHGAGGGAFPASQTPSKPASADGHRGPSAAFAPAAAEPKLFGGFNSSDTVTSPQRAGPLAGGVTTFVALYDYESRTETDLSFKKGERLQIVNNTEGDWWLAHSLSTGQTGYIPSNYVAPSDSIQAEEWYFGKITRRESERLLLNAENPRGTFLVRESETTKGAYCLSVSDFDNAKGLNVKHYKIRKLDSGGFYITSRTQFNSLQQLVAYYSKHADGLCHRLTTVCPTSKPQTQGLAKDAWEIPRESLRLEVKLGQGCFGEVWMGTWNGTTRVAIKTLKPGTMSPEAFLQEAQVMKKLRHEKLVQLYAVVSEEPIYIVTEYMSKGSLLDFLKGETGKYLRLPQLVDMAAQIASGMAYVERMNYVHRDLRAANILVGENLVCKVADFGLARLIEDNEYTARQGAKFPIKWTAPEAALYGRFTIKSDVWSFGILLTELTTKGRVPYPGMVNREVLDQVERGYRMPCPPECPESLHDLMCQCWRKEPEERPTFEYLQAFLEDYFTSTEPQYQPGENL

melting point | IC50 (human Fyn) | IC50 (human Src) | C2: Fyn kinase pIC50 (human Fyn) | SMILES
241 °C |  |  |  | CN1CCCCCOc2cc3c(ncnc3cc2OCCCNCCO)Nc2c(cc(Br)c3c2OCO3)C1 [Compound B71]
244 °C |  |  |  | CN1CCN(CCCOc2cc3ncnc4c3cc2OCCCCCNCc2cc(Br)c3c(c2N4)OCO3)CC1 (as salt: HCl) [Compound B28]
250 °C | 120 nM |  |  | COc1cc2c3c(ncnc3c1)Nc1c(ccc3c1OCO3)CNCCCCCO2 [Compound B47]
 | 20.9 nM | 501 nM |  | CN(CCO)CCCOc1cc2ncnc3c2cc1OCCCNCCN(C)Cc1ccc2c(c1N3)OCO2 [Compound B5]
 | < 1000 nM | > 10000 nM |  | COCCOCCOc1cc2ncnc3c2cc1OCCCN(C(=O)OC(C)(C)C)CCN(C)Cc1ccc2c(c1N3)OCO2 [Compound A28]
 | 40.7 nM | > 10000 nM |  | COc1cc2ncnc3c2cc1OCCCCCNCc1cc(Oc2ccc(C)nc2)c2c(c1N3)OCO2 [Compound B17]
 | 29.5 nM | 631 nM |  | COCCNCCCOc1cc2ncnc3c2cc1OCCCNCCN(C)Cc1ccc2c(c1N3)OCO2 [Compound B35]
 | 7.76 nM | 1100 nM |  | COCCOc1cc2ncnc3c2cc1OCCCCCN(C)Cc1ccc2c(c1N3)OCO2 [Compound B2]
 | 1.23 nM | 617 nM |  | CN1CCCCCOc2cc3c(ncnc3cc2OCCCN2CCCCC2)Nc2c(ccc3c2OCO3)C1 [Compound B19]
 | 245 nM | 3310 nM |  | COc1cc2ncnc3c2cc1OCCCNC(=O)[C@H](C)N(C)Cc1ccc2c(c1N3)OCO2 [Compound A38]
 | 11.7 nM | 447 nM |  | CN1CCN(CCCOc2cc3ncnc4c3cc2OCCCNCCN(C)Cc2ccc3c(c2N4)OCO3)CC1 [Compound B3]
 | 16.6 nM | 6460 nM |  | COc1cc2ncnc3c2cc1OCCCCCNCc1cc(Br)c2c(c1N3)OCO2 [Compound B8]
 | > 1000 nM | > 10000 nM |  | CN1CCN(C(=O)OC(C)(C)C)CCCOc2cc3c(ncnc3cc2O)Nc2c(ccc3c2OCO3)C1 [Compound A24]
 | 34.7 nM | > 10000 nM |  | CN1CCCCCOc2cc3c(ncnc3cc2O)Nc2c(ccc3c2OCO3)C1 [Compound A12]
210 to 213 °C | < 1000 nM | > 10000 nM |  | CN1CCCCCOc2cc3c(ncnc3cc2OCCCNC(=O)OC(C)(C)C)Nc2c(ccc3c2OCO3)C1 [Compound A56]
 |  | 2570 nM | >6 | COc1cc2ncnc3c2cc1OCCCCCNCc1ccc2c(c1N3)OCO2 [Compound A10]
 | 5.25 nM | 1410 nM |  | CN1CCCCCOc2cc3c(ncnc3cc2OC[C@H](O)CN2CCS(=O)(=O)CC2)Nc2c(ccc3c2OCO3)C1 [Compound B25]
224 °C |  |  |  | Brc1cc2c(c3c1OCO3)Nc1ncnc3cc(OCCCN4CCCC4)c(cc13)OCCCCCNC2 (as salt: HCl) [Compound B27]
 | 23.4 nM | 1480 nM |  | COCCOCCOc1cc2ncnc3c2cc1OCCCNCCN(C)Cc1ccc2c(c1N3)OCO2 [Compound B4]
 | < 1000 nM | 708 nM |  | CN1CCCCCOc2cc3c(ncnc3cc2OCCCN2CCS(=O)(=O)CC2)Nc2c(ccc3c2OCO3)C1 [Compound B23]
 | 22.4 nM | 2240 nM |  | CN1CCN(CCCOc2cc3ncnc4c3cc2OCCCN(C(=O)OC(C)(C)C)CCN(C)Cc2ccc3c(c2N4)OCO3)CC1 [Compound A27]
 | 6.17 nM | 479 nM |  | CN1CCCCCOc2cc3c(ncnc3cc2OCCCNCCO)Nc2c(ccc3c2OCO3)C1 [Compound B69]
 | 6.92 nM | 186 nM |  | COc1cc2ncnc3c2cc1OCCCN(S(=O)(=O)c1ccccc1[N+](=O)[O-])CCN(C)Cc1ccc2c(c1N3)OCO2 [Compound A20]
